Values of other authors in patent US20210186870A1, “IMPROVED CANNABINOID BIOAVAILABILITY” (EMERALD HEALTH TH[…] INC., priority 2018, published 2021).
Where two headings read alike, the source gives them in different places.

For CCCCCc1cc(O)c2c(c1)OC(C)(C)[C@@H]1CCC(C)=C[C@@H]21 [THC, tetrahydrocannabinol], the “bioavailability of THC” value (from inhaled cannabis smoke) is listed as 2-56% and the “bioavailability of THC” value (orally consumed cannabis) is listed as 4-20%.
